Patent US12419811B2, “Hydrogel drug delivery composition” (Board of Regents of the University of Nebraska, priority 2019, dated 2025)

Experiments:
[1] = tested on: experimental periodontitis; experiment: BIO hydrogels in rat experimental periodontitis, micro-CT of periodontal bone and femur; format: in vivo, Sprague Dawley rats; conditions: 100 μM BIO, week 4
From the text: Ten-month-old female Sprague Dawley rats (retired breeders, Envigo) were acclimated for one week prior to experiment. […] Using silk ligatures, the experimental periodontitis was induced as described previously^[32, 38]. Briefly, rats were first anesthetized in an isoflurane chamber with a 1% to 4% isoflurane in 100% O2. After taking the body weight, the rats were positioned with a nose cone supplied with 0.5% to 2% isoflurane and 100% O2 to maintain anesthesia during the entire procedure. To induce experimental periodontitis, a 4-0 silk ligature was gently tightened subgingivally around the maxillary 2nd molars (M2). Following ligature placement, different treatments (10 μL) were locally delivered between the maxillary 1st molar (M1) and 2nd molar (M2) once each week for 3 weeks. After one week, the ligatures were removed. All animals were euthanized at week 4. The entire palate including all three molars was dissected and fixed in 10% formalin prior to micro-CT and histological analyses. […] All palate samples (including all three molars) were evaluated for alveolar bone quality using a high-resolution X-ray microtomography system (Skyscan 1172, Bruker, Kontich, Belgium), references to previous studies^[32, 38]. […] To evaluate bone erosion, the distance from cementoenamel junction (CEJ) to alveolar bone crest (ABC) was determined using Skyscan Data viewer software. […] The ROI was determined from the distopalatal of M1 to the mesiopalatal of M2 (length), 130 slices below the CEJ of M1 and M2 (height), and from the palatal side to the buccal side of M1 and M2 (width). […] For bone quality analysis, a consistent polygonal ROI of trabecular bone at the distal femur was selected and the ROI was determined from 20 slices to 100 slices proximal to the growth plate. The bone histomorphometric parameters, including mean bone volume (BV), bone volume/tissue volume (BV/TV), trabecular thickness (Tb.Th) and bone mineral density (BMD) were determined using CT-Analyzer software.

β-catenin = experiment: BIO hydrogels in rat experimental periodontitis, IHC staining of β-catenin; format: in vivo, Sprague Dawley rats; conditions: between M1 and M2
From the text: (§1) Ten-month-old female Sprague Dawley rats (retired breeders, Envigo) were acclimated for one week prior to experiment. […] Using silk ligatures, the experimental periodontitis was induced as described previously^[32, 38]. Briefly, rats were first anesthetized in an isoflurane chamber with a 1% to 4% isoflurane in 100% O2. After taking the body weight, the rats were positioned with a nose cone supplied with 0.5% to 2% isoflurane and 100% O2 to maintain anesthesia during the entire procedure. To induce experimental periodontitis, a 4-0 silk ligature was gently tightened subgingivally around the maxillary 2nd molars (M2). […] To probe the presence of inflammatory cells between M1 and M2 and osteoclasts in the alveolar crest, a pathologist (SML) blind to experimental group assignment, evaluated the slides semi-quantitatively using an Olympus BX53 microscope. A semi-quantitative scoring system^[32, 40, 41] was used to evaluate inflammatory cells, where 0 is negative, 1 is less than 30% of the affected tissues, 2 is some inflammatory cells (30-60%), and 3 is many inflammatory cells (>60%). Similarly, osteoclasts on the alveolar crest were evaluated using a semi-quantitative scoring system^[32,42] where 0 is negative, 1 is a few osteoclasts lining less than 5% of alveolar bone surface, 2 is some osteoclasts (5-25%), and 3 is many osteoclasts (25-50%). […]

[2] = tested on: experimental periodontitis; experiment: BIO hydrogels in rat experimental periodontitis, H&E histology scores; format: in vivo, Sprague Dawley rats
From the text: as §1

[3] = In vitro release of BIO from PF127 hydrogel (membrane-less); format: physicochemical; conditions: 37° C.
Experimental: After gelation, 2 mL of phosphate-buffered saline (PBS; pH 7.4) containing 0.5% Tween 80 pre-equilibrated at 37° C. were gently laid over the surface of the hydrogels and incubated in a water bath at 37° C. with continuous gentle shaking. […] The release study was performed in triplicate.

[4] = 10 μL local once each week for 3 weeks

O=C1Nc2cc(Br)ccc2/C1=C1/Nc2ccccc2/C1=N\O [BIO, 6-bromoindirubin-3′-oxime]
linear distance CEJ to ABC (alveolar bone loss) ([1]; 10 μL local between M1 and M2 once each week for 3 weeks): did not show a statistically significant difference comparing to the saline-treated group | Bone volume (BV) of alveolar bone [1, 4]: No statistically significant difference | trabecular thickness (Tb.Th) of alveolar bone [1, 4]: No statistically significant difference | β-Catenin positive cell score (0-3) (β-catenin): not significantly different (P>0.05) from the saline Con-, PF127, and healthy Con+ group | osteoclast score (semi-quantitative, 0-3) ([2]; alveolar crest, after three weeks of treatment): significantly lower than the saline Con-group | inflammatory cell score (semi-quantitative, 0-3) ([2]; between M1 and M2, after three weeks of treatment): statistically significant difference (P<0.01) only when compared to the saline Con-group | burst release of BIO ([3]; from 20% w/v PF127 hydrogel, first 3 hr): ~50% | total release of BIO ([3]; from 20% w/v PF127 hydrogel, in 24 hr): ~99% | BIO release profile ([3]; from 25% w/v PF127 hydrogel): burst release in the first 12 hr followed by a sustained release in the next 48 hr | duration of sustained BIO release ([3]; from 30% w/v PF127 hydrogel): over 48 hr
